Results from US20240158446A1, “CYCLIC COMPOUND HAVING SELECTIVE INHIBITORY ACTION ON KRAS OVER HRAS AND NRAS” (CHUGAI SEIYAKU KABUSHIKI KAISHA, priority 2021, published 2024).
Like-named read-outs stand apart in the source and are kept apart here. Where a SMILES comes first, the peptide text is derived from it. Bridges are numbered along the chain shown (N, C = ends). [ ]: non-standard residue; d: D form. The star is where a group is joined. hPhe(3,5-F2-4-CF3) = N[C@@H](CCc1cc(F)c(C(F)(F)F)c(F)c1)C(=O)O; hPhe(3-Cl-4-CF3) = N[C@@H](CCc1ccc(C(F)(F)F)c(Cl)c1)C(=O)O; NPrPhe(4-CF3) = CCCN[C@@H](Cc1ccc(C(F)(F)F)cc1)C(=O)O; Morpholine(3S-CO) = O=C(O)[C@@H]1COCCN1; NMeGly(cPent) = CN[C@H](C(=O)O)C1CCCC1; Hyp = O=C(O)[C@@H]1C[C@@H](O)CN1; NMeD = CN[C@@H](CC(=O)O)C(=O)O; NMeL = CN[C@@H](CC(C)C)C(=O)O; Iva = CC[C@](C)(N)C(=O)O; Morpholide = C1CN(*)CCO1; Ac5c = NC1(C(=O)O)CCCC1; Aze = O=C(O)[C@@H]1CCN1; Sar = CNCC(=O)O

Assays:
[1] = biological target: GDP-bound KRAS wild-type protein (Homo sapiens, UniProt P01116); test: Binding to KRAS by surface plasmon resonance (SPR), Single Cycle Kinetics; settings: GDP-bound KRAS wild-type protein, read-out: KRAS KD
[2] = biological target: GDP-bound NRAS wild-type protein (Homo sapiens, UniProt P01111); test: Binding to NRAS by surface plasmon resonance (SPR), Single Cycle Kinetics; settings: for NRAS/KRAS (ratio of KD value for NRAS to KD value for KRAS) / NRAS/KRAS (ratio of KD value with respect to NRAS to KD value with respect to KRAS): SPR, GDP-bound NRAS wild-type protein vs GDP-bound KRAS wild-type protein; for NRAS/KRAS (ratio of KD value with respect to GDP-bound NRAS wild-type protein to KD value with respect to KRAS): SPR KD ratio NRAS/KRAS, class symbols
[3] = biological target: GDP-bound HRAS wild-type protein (Homo sapiens, UniProt P01112); test: Binding to HRAS by surface plasmon resonance (SPR), Single Cycle Kinetics; settings: for HRAS/KRAS (ratio of KD value for HRAS to KD value for KRAS) / HRAS/KRAS (ratio of KD value with respect to HRAS to KD value with respect to KRAS): SPR, GDP-bound HRAS wild-type protein vs GDP-bound KRAS wild-type protein; for HRAS/KRAS (ratio of KD value with respect to GDP-bound HRAS wild-type protein to KD value with respect to KRAS): SPR KD ratio HRAS/KRAS, class symbols
[4] = SPR Single Cycle Kinetics, 1:1 binding model

GDP-bound NRAS wild-type protein, sequence (P01111 whole entry): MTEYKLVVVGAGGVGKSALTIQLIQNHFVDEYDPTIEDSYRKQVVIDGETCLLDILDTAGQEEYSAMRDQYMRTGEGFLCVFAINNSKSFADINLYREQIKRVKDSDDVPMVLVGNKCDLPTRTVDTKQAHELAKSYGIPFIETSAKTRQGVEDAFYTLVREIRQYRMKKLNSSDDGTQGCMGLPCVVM
GDP-bound KRAS wild-type protein, sequence (P01116 whole entry): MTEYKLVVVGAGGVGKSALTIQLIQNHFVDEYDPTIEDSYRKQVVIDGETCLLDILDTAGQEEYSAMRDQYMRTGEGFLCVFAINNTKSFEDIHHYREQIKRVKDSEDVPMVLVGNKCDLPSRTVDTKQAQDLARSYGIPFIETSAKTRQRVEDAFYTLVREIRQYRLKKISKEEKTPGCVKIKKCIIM
GDP-bound HRAS wild-type protein, sequence (P01112 whole entry): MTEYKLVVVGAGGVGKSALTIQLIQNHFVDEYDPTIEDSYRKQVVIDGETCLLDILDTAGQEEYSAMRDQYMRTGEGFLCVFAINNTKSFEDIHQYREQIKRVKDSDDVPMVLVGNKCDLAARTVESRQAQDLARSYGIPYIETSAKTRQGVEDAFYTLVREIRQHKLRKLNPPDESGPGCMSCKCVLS

Row | Kd [1, 4] | Kd ([1]; SPR, Single Cycle Kinetics) | Structure (SMILES) | NRAS/KRAS (ratio of KD value for NRAS to KD value for KRAS) [2] | HRAS/KRAS (ratio of KD value for HRAS to KD value for KRAS) [3] | other results
1 | 0.7 nM | – | CCCN1C(=O)CN(C)C(=O)[C@@H]2CCN2C(=O)[C@H]([C@@H](C)CC)NC(=O)[C@H](CC(C)C)N(C)C(=O)C[C@@H](C(=O)N(C)C)NC(=O)[C@H](C2CCCC2)N(C)C(=O)C2(CCCC2)NC(=O)[C@@H]2C[C@@H](OCC)CN2C(=O)[C@H](CCc2ccc(C(F)(F)F)c(Cl)c2)NC(=O)CN(C)C(=O)[C@@H]1Cc1ccc(C(F)(F)F)cc1 [PP0377] ([NMeL]I[Aze][Sar][NPrPhe(4-CF3)][Sar][hPhe(3-Cl-4-CF3)][Hyp](Et)[Ac5c][NMeGly(cPent)]D-NMe2; lactam N-11) | B (a compound having 3 or more and less than 10 is denoted as B) | C (A compound having a KD ratio of 0.1 or more and less than 3 is denoted as C) | –
2 | 4.8 nM | – | CCC[C@H]1C(=O)N[C@@H]([C@@H](C)CC)C(=O)N(C)CC(=O)N(C)[C@H]2C/C=C\CCN(C2=O)[C@@H](Cc2ccc(C(F)(F)F)cc2)C(=O)N(C)CC(=O)N[C@@H](CCc2ccc(C(F)(F)F)c(Cl)c2)C(=O)N2CCCC[C@H]2C(=O)NC2(CC(C)(C)C2)C(=O)N(C)[C@@H](C(CC)CC)C(=O)N(C)[C@H](C(=O)N(C)C)CC(=O)N1C [PP2928] | – | – | NRAS/KRAS (ratio of KD value with respect to GDP-bound NRAS wild-type protein to KD value with respect to KRAS) [2]: AA (a compound having 20 or more is denoted as AA); HRAS/KRAS (ratio of KD value with respect to GDP-bound HRAS wild-type protein to KD value with respect to KRAS) [3]: A (a compound having 10 or more and less than 20 is denoted as A)
3 | – | 0.11 nM | CCO[C@@H]1C[C@H]2C(=O)NC3(CCC3)C(=O)N(C)[C@@H](C3CCCC3)C(=O)N(C)[C@H](C(=O)N(C)C)CC(=O)N(C)[C@H]3CCCCCCc4ccc(cc4)C[C@@H](C(=O)N(C)CC(=O)N[C@@H](CCc4ccc(C(F)(F)F)c(OC)c4)C(=O)N2C1)N1CC/C=C\C[C@@H](C1=O)N(C)C(=O)CN(C)C(=O)[C@H]([C@@H](C)CC)NC3=O [PP2264] | AA (a compound having 20 or more is denoted as AA) | A (a compound having 10 or more and less than 20 is denoted as A) | –
4 | – | 4.8 nM | CCO[C@@H]1C[C@H]2C(=O)NC3(CCC3)C(=O)N(C)[C@@H](C3CCCC3)C(=O)N(CCC3CCCC3)[C@H](C(=O)N(C)C)CC(=O)N(C)[C@@H](CC(C)C)C(=O)N[C@@H]([C@@H](C)CC)C(=O)N(C)CC(=O)N(C)[C@H]3CCCCCN(C3=O)[C@@H](Cc3ccc(F)cc3)C(=O)N(C)CC(=O)N[C@@H](CCc3ccc(C(F)(F)F)c(Cl)c3)C(=O)N2C1 [PP0976] | B (a compound having 3 or more and less than 10 is denoted as B) | B (a compound having 3 or more and less than 10 is denoted as B) | –
5 | – | 0.51 nM | CCO[C@@H]1C[C@H]2C(=O)NC3(CC(C)(C)C3)C(=O)N(C)[C@@H](C(CC)CC)C(=O)N(C)[C@H](C(=O)N(C)C)CC(=O)N(C)[C@@H](C(C)C)C(=O)N[C@@H]([C@@H](C)CC)C(=O)N(C)CC(=O)N(C)[C@H]3C/C=C\CCN(C3=O)[C@@H](Cc3ccc(C(F)(F)F)cc3)C(=O)N(C)CC(=O)N[C@@H](CCc3ccc(C(F)(F)F)c(OC)c3)C(=O)N2C1 [PP2165] | A (a compound having 10 or more and less than 20 is denoted as A) | A (a compound having 10 or more and less than 20 is denoted as A) | –
6 | 0.066 nM | – | CC[C@H](C)[C@@H]1NC(=O)[C@H](CC(C)C)N(C)C(=O)C[C@@H](C(=O)N2CCOCC2)N(C)C(=O)[C@H](C2CCCC2)N(C)C(=O)C2(CCCC2)NC(=O)[C@@H]2CC(=O)CN2C(=O)[C@H](CCc2cc(F)c(C(F)(F)F)c(F)c2)NC(=O)CN(C)C(=O)[C@H](Cc2ccc(C(F)(F)F)cc2)N2CCCC[C@@H](C2=O)N(C)C(=O)CN(C)C1=O [PP0555] | – | – | NRAS/KRAS (ratio of KD value with respect to NRAS to KD value with respect to KRAS) [2]: B (a compound having 3 or more and less than 10 is denoted as B); HRAS/KRAS (ratio of KD value with respect to HRAS to KD value with respect to KRAS) [3]: B (a compound having 3 or more and less than 10 is denoted as B)
7 | – | 0.18 nM | CCO[C@@H]1C[C@H]2C(=O)NC3(CCC3)C(=O)N(C)[C@@H](C3CCCC3)C(=O)N(C)[C@H](C(=O)N(C)C)CC(=O)N(C)[C@H]3CCCCCc4ccc(cc4)C[C@@H](C(=O)N(C)CC(=O)N[C@@H](CCc4cc(F)c(C(F)(F)F)c(F)c4)C(=O)N2C1)N1CC/C=C\C[C@@H](C1=O)N(C)C(=O)CN(C)C(=O)[C@H]([C@@H](C)CC)NC3=O [PP2261] | A (a compound having 10 or more and less than 20 is denoted as A) | A (a compound having 10 or more and less than 20 is denoted as A) | –
8 | – | 0.91 nM | CCO[C@@H]1C[C@H]2C(=O)NC3(CCC3)C(=O)N(C)[C@@H](C3CCCC3)C(=O)N(C)[C@H](C(=O)N(C)C)CC(=O)N(C)[C@@H](CC)C(=O)N[C@@H]([C@@H](C)CC)C(=O)N3CC[C@H]3C(=O)N(C)[C@H]3CC(C)=C(C)CN(C3=O)[C@@H](Cc3ccc(C(F)(F)F)cc3)C(=O)N(C)CC(=O)N[C@@H](CCc3cc(F)c(C(F)(F)F)c(F)c3)C(=O)N2C1 [PP1049] | C (A compound having a KD ratio of 0.1 or more and less than 3 is denoted as C) | C (A compound having a KD ratio of 0.1 or more and less than 3 is denoted as C) | –
9 | – | 0.32 nM | CCO[C@@H]1C[C@H]2C(=O)NC3(CC(F)(F)C3)C(=O)N(C)[C@@H](C3CCCC3)C(=O)N(C)[C@H](C(=O)N3CCOCC3)CC(=O)N(C)[C@@H](CC(C)C)C(=O)N[C@@H]([C@@H](C)CC)C(=O)N(C)CC(=O)N(C)[C@H]3C[C@H]4C[C@H]4CN(C3=O)[C@@H](Cc3ccc(C(F)(F)F)cc3)C(=O)N(C)CC(=O)N[C@@H](CCc3cc(F)c(C(F)(F)F)c(F)c3)C(=O)N2C1 [PP0831] | C (A compound having a KD ratio of 0.1 or more and less than 3 is denoted as C) | C (A compound having a KD ratio of 0.1 or more and less than 3 is denoted as C) | –
10 | – | 0.13 nM | CCCOC[C@H]1C(=O)N[C@@H]([C@@H](C)CC)C(=O)N2CCC[C@H]2C(=O)N(C)[C@H]2C/C=C\CCN(C2=O)[C@@H](Cc2ccc(C)cc2)C(=O)N(C)CC(=O)N[C@@H](CCc2ccc(C(F)(F)F)c(OC)c2)C(=O)N2C[C@H](OCC)C[C@H]2C(=O)N(C)C2(CCC2)C(=O)N(C)[C@@H](C2CCCC2)C(=O)N(C)[C@H](C(=O)N(C)C)CC(=O)N1C [PP2334] | A (a compound having 10 or more and less than 20 is denoted as A) | B (a compound having 3 or more and less than 10 is denoted as B) | –
11 | 0.58 nM | – | CCC[C@H]1C(=O)N[C@@H]([C@@H](C)CC)C(=O)N(C)CC(=O)N(C)[C@H]2C/C=C\CCN(C2=O)[C@@H](Cc2ccc(C(F)(F)F)cc2)C(=O)N(C)CC(=O)N[C@@H](CCc2cc(F)c3c(c2)CCC3)C(=O)N2C[C@H](OCC)C[C@H]2C(=O)NC2(CC(C)(C)C2)C(=O)N(C)[C@@H](C2CCCC2)C(=O)N(C)[C@H](C(=O)N(C)C)CC(=O)N1C [PP2849] | – | – | NRAS/KRAS (ratio of KD value with respect to GDP-bound NRAS wild-type protein to KD value with respect to KRAS) [2]: A (a compound having 10 or more and less than 20 is denoted as A); HRAS/KRAS (ratio of KD value with respect to GDP-bound HRAS wild-type protein to KD value with respect to KRAS) [3]: A (a compound having 10 or more and less than 20 is denoted as A)
12 | 0.28 nM | – | CCCN1C(=O)CN(C)C(=O)CN(C)C(=O)[C@H]([C@@H](C)CC)NC(=O)[C@H](CC(C)C)N(C)C(=O)C[C@@H](C(=O)N2CCOCC2)N(C)C(=O)[C@H](C2CCCC2)N(C)C(=O)C2(CCCC2)NC(=O)[C@@H]2COCCN2C(=O)[C@H](CCc2ccc(C(F)(F)F)c(Cl)c2)NC(=O)CN(C)C(=O)[C@@H]1Cc1ccc(C(F)(F)F)cc1 [PP0265] ([NMeL]I[Sar][Sar][NPrPhe(4-CF3)][Sar][hPhe(3-Cl-4-CF3)][Morpholine(3S-CO)][Ac5c][NMeGly(cPent)][NMeD]-Morpholide; lactam N-11) | B (a compound having 3 or more and less than 10 is denoted as B) | C (A compound having a KD ratio of 0.1 or more and less than 3 is denoted as C) | –
13 | – | – | CCO[C@@H]1C[C@H]2C(=O)NC3(CCC3)C(=O)N(C)[C@@H](C(CC)CC)C(=O)N(C)[C@H](C(=O)N(C)C)CC(=O)N(C)[C@@H](CC3CCCC3)C(=O)N[C@@H]([C@@H](C)CC)C(=O)N(C)CC(=O)N(C)[C@H]3C/C=C\CCN(C3=O)[C@@H](Cc3ccc(F)cc3)C(=O)N(C)CC(=O)N[C@@H](CCc3cc(F)c(C(F)(F)F)c(F)c3)C(=O)N2C1 [PP1517] | – | – | Kd ([1]; SPR, Single Cycle Kinetics, 1:1 binding model): 0.43 nM; NRAS/KRAS (ratio of KD value for NRAS to KD value for KRAS) ([2]; KD ratio class): A (a compound having 10 or more and less than 20 is denoted as A); HRAS/KRAS (ratio of KD value for HRAS to KD value for KRAS) ([3]; KD ratio class): A (a compound having 10 or more and less than 20 is denoted as A)
14 | 0.16 nM | – | CCCN1C(=O)CN(C)C(=O)CN(C)C(=O)[C@H]([C@@H](C)CC)NC(=O)[C@H](CC(C)C)N(C)C(=O)C[C@@H](C(=O)N(C)C)N(C)C(=O)[C@H](C2CCCC2)N(C)C(=O)[C@](C)(CC)NC(=O)[C@@H]2CCCN2C(=O)[C@H](CCc2cc(F)c(C(F)(F)F)c(F)c2)NC(=O)CN(C)C(=O)[C@@H]1Cc1ccc(C(F)(F)F)cc1 [PP0805] ([NMeL]I[Sar][Sar][NPrPhe(4-CF3)][Sar][hPhe(3,5-F2-4-CF3)]P[Iva][NMeGly(cPent)][NMeD]-NMe2; lactam N-11) | – | – | NRAS/KRAS (ratio of KD value with respect to NRAS to KD value with respect to KRAS) [2]: B (a compound having 3 or more and less than 10 is denoted as B); HRAS/KRAS (ratio of KD value with respect to HRAS to KD value with respect to KRAS) [3]: C (A compound having a KD ratio of 0.1 or more and less than 3 is denoted as C)
